Experimental data published in ChEMBL document CHEMBL5550165, “Novel quinoxaline analogs as telomeric G-quadruplex ligands exert antitumor effects related to enhanced immunomodulation” (Eur J Med Chem, 2024).
The source made the active and inactive calls. The rule behind the calls is not given here.

What was measured:
[1] = system: MDA-MB-231; test: Induction of immunogenic cell death in human MDA-MB-231 cells assessed as increase in CRT expression incubated for 24 hrs by Alexa Fluor 647 flow cytometric assay; format: functional, cell-based
[2] = system: MDA-MB-231; test: Induction of immunogenic cell death in human MDA-MB-231 cells assessed as increase in CRT expression incubated for 24 hrs by immunofluorescence confocal laser scanning microscopic analysis; format: functional, cell-based
[3] = system: 4T1; test: Antitumor immunity against mouse 4T1 cells implanted in BALB/c mouse assessed as increase in proportion of CD8+ T cells in spleen at 10 mg/kg,ip every other day for 14 days by flow cytometry; format: functional, organism-based; details: time 14.0 day
[4] = system: 4T1; test: Cytotoxicity against mouse 4T1 cells incubated for 24 hrs by CCK-8 reagent based spectrophotometric analysis; format: functional, cell-based; details: 4T1, 24 h
[5] = system: MDA-MB-231; test: Induction of DNA damage in human MDA-MB-231 cells assessed as upregulation of CHK2 phosphorylation incubated for 24 hrs by Western blot analysis; format: functional, cell-based
[6] = system: MDA-MB-231; test: Induction of immunogenic cell death in human MDA-MB-231 cells assessed as increase in ATP release at 1 to 4 uM incubated for 24 hrs by ELISA; format: functional, cell-based; details: dose 1-4 µM
[7] = system: Quadruplex DNA; test: Stabilization of G-quadruplex telomeric DNA in human MDA-MB-231 cells assessed as increase in S9.6-positive cell nuclei at 3 uM incubated for 24 hrs by DAPI staining based immunofluorescence microscopic analysis
[8] = system: MDA-MB-231; test: Induction of DNA damage in human MDA-MB-231 cells assessed as increase in micronuclei frequency in aberrant cell at 4 uM incubated for 24 hrs by DAPI staining based microscopic analysis; format: functional
[9] = system: BMDC; test: Induction of immunogenic cell death in BALB/c mouse BMDC cells co-cultured with mouse 4T1 cells assessed as increase in CD11c+ CD80+ CD86 cells maturation at 5 uM incubated for 24 hrs by flow cytometry (reference value: 69.4 %); format: functional
[10] = system: MDA-MB-231; test: Induction of DNA damage in human MDA-MB-231 cells assessed as increase in tail moment at 4 uM incubated for 24 hrs by electrophoresis assay; format: functional, cell-based
[11] = Toxicity in BALB/c mouse implanted with mouse 4T1 cells assessed as histopathological change in heart at 10 mg/kg,ip every other day for 14 days by hematoxylin and eosin staining analysis; format: organism-based; details: in vivo, 336 h, time 14 day
[12] = system: MDA-MB-231; test: Induction of DNA damage in human MDA-MB-231 cells assessed as upregulation of RPA32 expression at 1 to 4 uM incubated for 24 hrs by Western blot analysis; format: functional, cell-based; details: dose 1-4 µM
[13] = system: Quadruplex DNA; test: Stabilization of G-quadruplex telomeric DNA in human MDA-MB-231 cells assessed as increase in colocalization of BG4 and TRF2 formation foci at 3 uM incubated for 24 hrs by DAPI staining based immunofluorescence microscopic analysis; format: cell-based
[14] = system: MDA-MB-231; test: Induction of DNA damage in human MDA-MB-231 cells assessed as increase in colocalization of TRF2 and gamma-H2AX formation foci in nucleus at 3 uM incubated for 24 hrs by DAPI staining based immunofluorescence analysis; format: functional, cell-based
[15] = system: MDA-MB-231; test: Induction of DNA damage in human MDA-MB-231 cells assessed as increase in multi-nuclei frequency in aberrant cell at 4 uM incubated for 24 hrs by DAPI staining based microscopic analysis; format: functional
[16] = system: MDA-MB-231; test: Cytotoxicity against human MDA-MB-231 cells incubated for 24 hrs by CCK-8 reagent based spectrophotometric analysis; format: functional, cell-based; details: MDA-MB-231, 24 h
[17] = system: Quadruplex DNA; test: Binding affinity to G-quadruplex telomeric DNA (unknown origin) assessed as melting temperature by CD spectrophotometric analysis; format: nucleic-acid assay
[18] = system: Quadruplex DNA; test: Stabilization of G-quadruplex telomeric DNA in human MDA-MB-231 cells assessed as increase in colocalization of TRF2 and S9.6 formation foci at 3 uM incubated for 24 hrs by DAPI staining based immunofluorescence microscopic analysis; format: cell-based
[19] = system: MDA-MB-231; test: Induction of cell cycle arrest in human MDA-MB-231 cells assessed as accumulation of cells at G0/G1 phase at 4 uM incubated for 24 hrs by RNase/PI staining based flow cytometry (reference value: 82.3 %); format: functional
[20] = system: Quadruplex DNA; test: Stabilization of G-quadruplex 5-FAM-telomeric24 DNA-TAMRA-3 (unknown origin) assessed as change in melting temperature incubated for 2 hrs by FRET assay; format: nucleic-acid assay
[21] = system: MDA-MB-231; test: Induction of DNA damage in human MDA-MB-231 cells assessed as upregulation of ATM phosphorylation at 4 uM by Western blot analysis; format: functional, cell-based; details: TDE = time-dependent effect
[22] = system: Quadruplex DNA; test: Binding affinity to c-MYC G-quadruplex telomeric DNA (unknown origin) assessed as […] in melting temperature by FRET assay; format: nucleic-acid assay
[23] = system: MDA-MB-231; test: Induction of cell cycle arrest in human MDA-MB-231 cells assessed as accumulation of cells at S phase at 2 uM incubated for 24 hrs by RNase/PI staining based flow cytometry (reference value: 6.3 %); format: functional
[24] = Toxicity in BALB/c mouse implanted with mouse 4T1 cells assessed as histopathological change in spleen at 10 mg/kg,ip every other day for 14 days by hematoxylin and eosin staining analysis; format: organism-based; details: in vivo, 336 h, time 14 day
[25] = system: 4T1; test: Antitumor activity against mouse 4T1 cells implanted in BALB/c mouse assessed as reduction in tumor volume at 10 mg/kg,ip every other day for 14 days; format: functional, organism-based; details: time 14.0 day
[26] = system: MDA-MB-231; test: Induction of apoptosis in human MDA-MB-231 cells assessed as upregulation of cleaved caspase-3 expression at 1 to 4 uM incubated for 24 hrs by Western blot analysis; format: functional, cell-based; details: dose 1-4 µM
[27] = system: 4T1; test: Antitumor immunity against mouse 4T1 cells implanted in BALB/c mouse assessed as increase in proportion of CD4+ T cells in spleen at 10 mg/kg,ip every other day for 14 days by flow cytometry; format: functional, organism-based; details: time 14.0 day
[28] = system: U2OS; test: Cytotoxicity against human U2OS cells incubated for 24 hrs by CCK-8 reagent based spectrophotometric analysis; format: functional, cell-based
[29] = system: Quadruplex DNA; test: Stabilization of G-quadruplex telomeric DNA in human MDA-MB-231 cells assessed as R-loop formation in mitochondria by measuring increase in S9.6 intensity at 3 uM incubated for 24 hrs by DAPI staining based immunofluorescence microscopic analysis
[30] = system: MDA-MB-231; test: Inhibition of colony formation in human MDA-MB-231 cells at 0.25 uM incubated for 8 days by crystal violet staining based analysis; format: functional, cell-based; details: time 8.0 day
[31] = system: 4T1; test: Antitumor activity against mouse 4T1 cells implanted in BALB/c mouse assessed as upregulation of cleaved caspase-3 expression in tumor at 10 mg/kg,ip every other day for 14 days by Western blot analysis; format: functional, organism-based; details: time 14.0 day
[32] = system: DNA; test: Binding affinity to Mitochondrial DNA (unknown origin) assessed as increase in melting temperature by CD spectrophotometric analysis; format: nucleic-acid assay
[33] = system: 4T1; test: Antitumor immunity against mouse 4T1 cells implanted in BALB/c mouse assessed as increase in proportion of CD4+ T cells in tumor at 10 mg/kg,ip every other day for 14 days by immunohistochemistry staining based analysis; format: functional, organism-based; details: time 14.0 day
[34] = system: BMDC; test: Induction of immunogenic cell death in BALB/c mouse BMDC cells co-cultured with mouse 4T1 cells assessed as increase in CD11c+ CD80+ CD86 cells maturation at 2.5 uM incubated for 24 hrs by flow cytometry (reference value: 69.4 %); format: functional

In the case of `CN(C)CCN(C)c1ccc(-c2nc3ccc(C(F)(F)F)cc3nc2-c2ccc(N(C)CCN(C)C)cc2)cc1`, the Activity [1] is reported as “Dose-Dependent Effect”, the Activity [2] is reported as “Dose-Dependent Effect” and the Activity [3] is reported as “Active”. For the same molecule, the IC50 [4] was 4.6 µM, the Activity [5] was “Dose-Dependent Effect” and the Activity [6] was “Active”. The Activity [7] was “Active”, the Activity [8] was “Active” and the Activity [9] was 77.9%. The Activity [10] was “Active”, the Activity [11] was “Non-Toxic” and the Activity [12] was “Active”. The Activity [13] was “Active”, the Activity [14] was “Active” and the Activity [15] was “Active”. For the same molecule, the IC50 [16] was 1.7 µM, the Tm [17] was 66 °C and the Activity [18] was “Active”. For the same molecule, the Activity [19] was 70.3%, the ΔTm [20] was 6.1 °C and the Activity [21] was “Tde”. The Activity [22] was “Active”, the Activity [23] was 6.9% and the Activity [24] was “Non-Toxic”. The Activity [25] was “Active”, the Activity [26] was “Active” and the Activity [27] was “Active”. For the same molecule, the IC50 [28] was 3 µM, the Activity [29] was “Active” and the inhibition [30] was “Active”. The Activity [31] was “Active”, the Activity [32] was “Active” and the Activity [33] was “Active”. For the same molecule, the Activity [34] was 70.1%.
